Laboratory results from patent US20220089600A1, “TGFß INHIBITOR AND PRODRUGS” (FUNDACIÓ INSTITUT DE RECERCA BIOMÈDICA (IRB BARCELONA), priority 2018, published 2022).

What was measured:
[1] = In vivo toxicity, histopathology; design: species or system mouse; conditions: for Sternum side effect, mice affected per mice tested / Long bones side effect, mice affected per mice tested: two weeks
From the text: Number of cured mice, i.e. mice with no metastases at experimental end points, were score. Intestines, skin samples, hearts, thoracic skeletons and limbs of these mice were fixed in 10% formalin, phosphate buffered (Sigma). Soft tissues were embedded in paraffin blocks, sectioned and stained with haematoxylin & eosin. Bones were first decalcified for 2 weeks before embedding, sectioning and staining. An experienced pathologist analyzed tissues for histopathological abnormalities. […] Furthermore, the cartilage ossification zone at the ends of the long bones was analysed for defects in the hypertrophic zone.

[2] = tested on: proteins in the SafetyScreen44 panel (versus ALK5); test: SafetyScreen44 safety panel; conditions: SafetyScreen44 panel (Eurofins) of off-target proteins; read-out: selectivity ratios for the proteins in the SafetyScreen44 panel
Procedure: (§1) In addition, a safety assessment was performed by using the SafetyScreen44™ service from Eurofins. The targets therein are all strongly associated with in vivo adverse drug reactions as referenced in the publication Reducing safety-related drug attrition: the use of in vitro pharmacological profiling (Bowes J et al., Nature Review Drug Discovery 2012, 11(12): 909-922). The panel represents a rational first step in preliminary safety assessments as they provide early identification of potential off-target interactions for the optimization of safety margins. This Safety Panel includes both enzymatic and binding assays. The percentage of inhibition for the compound of formula I at 10 μM was lower than 50% for all proteins tested.

[3] = tested on: proteins in the SafetyScreen44 panel; test: SafetyScreen44 safety panel; conditions: at 10 μM, all proteins tested
Procedure: as §1

ALK1 (ACVRL1) = target: T1, ALK1 (ACVRL1) (Homo sapiens, UniProt P37023); test: KINOMEscan affinity, competition binding
T1 construct: purchased Eurofins (KINOMEscan service)
T1 sequence (P37023 22-503): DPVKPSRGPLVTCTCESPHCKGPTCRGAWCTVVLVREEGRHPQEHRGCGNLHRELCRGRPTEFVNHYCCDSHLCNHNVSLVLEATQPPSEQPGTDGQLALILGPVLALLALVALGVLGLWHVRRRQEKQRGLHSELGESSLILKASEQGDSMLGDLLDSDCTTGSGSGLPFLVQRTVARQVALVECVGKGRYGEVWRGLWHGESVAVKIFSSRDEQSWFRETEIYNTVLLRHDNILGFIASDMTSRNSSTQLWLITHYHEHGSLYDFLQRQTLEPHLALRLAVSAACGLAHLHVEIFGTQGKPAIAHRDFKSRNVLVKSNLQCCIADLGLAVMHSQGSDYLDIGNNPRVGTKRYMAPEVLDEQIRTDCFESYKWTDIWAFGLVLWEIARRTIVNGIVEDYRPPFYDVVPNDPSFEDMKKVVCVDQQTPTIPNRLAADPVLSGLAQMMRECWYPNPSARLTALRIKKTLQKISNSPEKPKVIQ
Procedure: (§2) The affinity, measured as Kd (dissociation constants), of the compound of formula I for the ALK family was determined by using the KINOMEscan™ Technology from Eurofins. Selectivity in front of ALK1 (ACVRL1), ALK2 (ACVR1), ALK3 (BMPR1A), ALK4 (ACVR1B), ALK6 (BMPR1B), ACVR2B and TGFβR2 was determined.
(§3) The KINOMEscan screening platform employs an active-site directed competition binding assay to quantitatively measure interactions between test compounds and kinases.
(§4) The assay is performed by combining three components: DNA-tagged kinase; immobilized ligand; and a test compound. The ability of the test compound to compete with the immobilized ligand is measured via quantitative PCR of the DNA tag.
(§5) Test compounds were prepared as 111× stocks in 100% DMSO. Kds were determined using an 11-point 3-fold compound dilution series with three DMSO control points being the top concentration 30 μM. […] The compounds were then diluted directly into the assays such that the final concentration of DMSO was 0.9%. All reactions performed in polypropylene 384-well plate. Each was a final volume of 0.02 ml. […] The beads were then re-suspended in elution buffer (1×PBS, 0.05% Tween 20, 0.5 μM non-biotinylated affinity ligand) and incubated at room temperature with shaking for 30 minutes. The kinase concentration in the eluates was measured by qPCR.
(§6) Compounds that bind the kinase active site and directly (sterically) or indirectly (allosterically) prevent kinase binding to the immobilized ligand, will reduce the amount of kinase captured on the solid support. […] Dissociation constants (Kds) for test compound-kinase interactions are calculated by measuring the amount of kinase captured on the solid support as a function of the test compound concentration.

ALK3 (BMPR1A) = target: T2, ALK3 (BMPR1A) (Homo sapiens, UniProt P36894); test: KINOMEscan affinity, competition binding
T2 construct: purchased Eurofins (KINOMEscan service)
T2 sequence (P36894 24-532): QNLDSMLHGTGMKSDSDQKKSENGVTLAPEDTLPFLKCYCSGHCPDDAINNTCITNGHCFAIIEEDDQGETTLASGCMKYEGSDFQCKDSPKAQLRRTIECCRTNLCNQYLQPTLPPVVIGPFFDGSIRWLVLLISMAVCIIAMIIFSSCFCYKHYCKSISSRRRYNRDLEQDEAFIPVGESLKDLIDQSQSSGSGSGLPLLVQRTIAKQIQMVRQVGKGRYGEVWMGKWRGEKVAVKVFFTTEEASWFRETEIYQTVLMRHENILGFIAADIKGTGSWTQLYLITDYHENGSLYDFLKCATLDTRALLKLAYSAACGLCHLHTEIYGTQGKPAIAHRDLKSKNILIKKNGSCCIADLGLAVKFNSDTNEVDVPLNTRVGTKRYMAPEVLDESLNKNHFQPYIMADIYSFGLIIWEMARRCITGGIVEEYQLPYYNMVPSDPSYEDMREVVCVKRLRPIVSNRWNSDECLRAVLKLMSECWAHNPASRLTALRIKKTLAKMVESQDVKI
Procedure: as §2, §3, §4, §5, §6

TGFBR2 = target: T3, TGFBR2 (Homo sapiens, UniProt P37173); test: KINOMEscan affinity, competition binding
T3 construct: purchased Eurofins (KINOMEscan service)
T3 sequence (P37173 23-567): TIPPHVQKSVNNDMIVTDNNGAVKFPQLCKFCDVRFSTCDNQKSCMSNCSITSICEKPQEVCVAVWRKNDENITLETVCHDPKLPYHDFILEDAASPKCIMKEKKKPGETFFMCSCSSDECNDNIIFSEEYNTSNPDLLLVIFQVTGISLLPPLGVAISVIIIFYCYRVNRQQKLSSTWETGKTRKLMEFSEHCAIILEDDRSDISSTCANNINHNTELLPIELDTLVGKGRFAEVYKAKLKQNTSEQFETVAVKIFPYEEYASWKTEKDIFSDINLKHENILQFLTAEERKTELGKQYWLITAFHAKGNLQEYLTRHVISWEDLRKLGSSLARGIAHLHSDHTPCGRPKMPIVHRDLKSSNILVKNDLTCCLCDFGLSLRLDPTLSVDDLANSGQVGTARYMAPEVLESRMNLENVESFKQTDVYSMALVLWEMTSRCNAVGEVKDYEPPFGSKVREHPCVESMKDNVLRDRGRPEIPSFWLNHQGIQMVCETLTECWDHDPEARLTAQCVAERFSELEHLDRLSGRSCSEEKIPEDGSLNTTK
Procedure: as §2, §3, §4, §5, §6

ALK2 (ACVR1) = target: T4, ALK2 (ACVR1) (Homo sapiens, UniProt Q04771); test: KINOMEscan affinity, competition binding
T4 construct: purchased Eurofins (KINOMEscan service)
T4 sequence (Q04771 21-509): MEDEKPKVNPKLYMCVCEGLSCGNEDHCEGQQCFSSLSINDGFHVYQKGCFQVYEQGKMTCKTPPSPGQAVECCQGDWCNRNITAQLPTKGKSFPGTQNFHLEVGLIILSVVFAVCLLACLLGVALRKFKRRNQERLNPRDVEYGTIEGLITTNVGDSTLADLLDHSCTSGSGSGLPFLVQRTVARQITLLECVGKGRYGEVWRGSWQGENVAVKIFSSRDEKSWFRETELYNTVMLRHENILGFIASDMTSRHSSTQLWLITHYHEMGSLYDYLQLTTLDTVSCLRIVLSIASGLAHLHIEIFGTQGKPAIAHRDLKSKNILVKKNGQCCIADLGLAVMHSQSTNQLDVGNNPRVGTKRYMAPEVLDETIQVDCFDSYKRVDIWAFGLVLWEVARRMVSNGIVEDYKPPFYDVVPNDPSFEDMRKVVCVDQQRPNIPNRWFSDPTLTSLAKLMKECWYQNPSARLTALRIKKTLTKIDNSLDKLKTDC
Procedure: as §2, §3, §4, §5, §6

ALK6 (BMPR1B) = target: T5, ALK6 (BMPR1B) (Homo sapiens, UniProt O00238); test: KINOMEscan affinity, competition binding
T5 construct: purchased Eurofins (KINOMEscan service)
T5 sequence (O00238 14-502): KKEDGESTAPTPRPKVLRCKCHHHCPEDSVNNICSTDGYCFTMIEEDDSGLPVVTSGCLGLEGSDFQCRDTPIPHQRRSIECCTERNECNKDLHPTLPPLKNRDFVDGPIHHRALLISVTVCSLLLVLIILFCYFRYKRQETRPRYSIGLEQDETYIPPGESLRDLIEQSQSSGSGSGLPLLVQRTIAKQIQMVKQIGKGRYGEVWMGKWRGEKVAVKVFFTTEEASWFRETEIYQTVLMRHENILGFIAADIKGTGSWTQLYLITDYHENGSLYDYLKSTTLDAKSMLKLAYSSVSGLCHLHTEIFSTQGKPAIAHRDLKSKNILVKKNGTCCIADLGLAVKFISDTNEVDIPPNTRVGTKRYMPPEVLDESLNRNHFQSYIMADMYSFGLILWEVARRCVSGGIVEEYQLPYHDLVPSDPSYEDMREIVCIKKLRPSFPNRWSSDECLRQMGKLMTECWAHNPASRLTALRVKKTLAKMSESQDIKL
Procedure: as §2, §3, §4, §5, §6

ACVR2B = target: T6, ACVR2B (Homo sapiens, UniProt Q13705); test: KINOMEscan affinity, competition binding
T6 construct: purchased Eurofins (KINOMEscan service)
T6 sequence (Q13705 19-512): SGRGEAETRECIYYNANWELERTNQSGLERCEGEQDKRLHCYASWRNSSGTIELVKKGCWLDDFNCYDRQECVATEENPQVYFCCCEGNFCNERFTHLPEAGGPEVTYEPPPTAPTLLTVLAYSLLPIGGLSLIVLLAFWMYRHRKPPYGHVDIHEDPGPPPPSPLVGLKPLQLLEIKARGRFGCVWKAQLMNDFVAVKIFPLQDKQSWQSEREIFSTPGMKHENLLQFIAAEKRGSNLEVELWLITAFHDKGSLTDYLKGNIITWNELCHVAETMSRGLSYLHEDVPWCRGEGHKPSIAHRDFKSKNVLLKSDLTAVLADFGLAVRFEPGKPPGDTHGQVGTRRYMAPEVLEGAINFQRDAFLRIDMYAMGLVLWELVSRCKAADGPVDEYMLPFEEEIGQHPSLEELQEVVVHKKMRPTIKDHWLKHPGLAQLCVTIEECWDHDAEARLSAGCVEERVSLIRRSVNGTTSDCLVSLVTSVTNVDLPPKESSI
Procedure: as §2, §3, §4, §5, §6

SMILES: Cc1cccc(-c2nn3c(c2-c2ccnc4ccc(O)cc24)CCC3)n1 [compound of formula I, 4-(2-(6-methylpyridin-2-yl)-5,6-dihydro-4H-pyrrolo[1,2-b]pyrazol-3-yl)quinolin-6-ol]
- Combined side effects per number tested ([1]; 0.3x dose): 0/5
- Toxicity (%) ([1]; 0.3x dose): 0%
- Sternum side effect, mice affected per mice tested ([1]; 0.3x dose): 0/5
- Combined side effects per number tested ([1]; 1x dose): 0/5
- Toxicity (%) ([1]; 1x dose): 0%
- Sternum side effect, mice affected per mice tested ([1]; 1x dose): 0/5
- pathological analysis of the skin and intestine ([1]; 1× doses): No pathological anomalies
- Combined side effects per number tested ([1]; 3x dose): 2/10
- Toxicity (%) ([1]; 3x dose): 20%
- Long bones side effect, mice affected per mice tested ([1]; 3x dose): 1/5
- Sternum side effect, mice affected per mice tested ([1]; 3x dose): 1/5
- Combined side effects per number tested ([1]; 9x dose): 4/8
- Toxicity (%) ([1]; 9x dose): 50%
- Long bones side effect, mice affected per mice tested ([1]; 9x dose): 3/4
- Sternum side effect, mice affected per mice tested ([1]; 9x dose): 1/4
- toxic dose (toxicity >50%) ([1]; 9× dose equivalent): 1272 mg/kg/day
- therapeutic index (toxic dose/effective dose) ([1]; dose equivalents): 30
- selectivity ratio at 10 μM [2]: > 500
- percentage of inhibition [3]: lower than 50%
- Selectivity improvement (ALK1 (ACVRL1); (I) versus Galunisertib): 3.8
- Selectivity against ALK5 (ALK1 (ACVRL1); ALK1 versus ALK5): 550
- selectivity for ALK5 against ALK1 (ALK1 (ACVRL1); KINOMEscan): greater than 300 fold
- Selectivity improvement (ALK3 (BMPR1A); (I) versus Galunisertib): 3.5
- Selectivity against ALK5 (ALK3 (BMPR1A); ALK3 versus ALK5): 345
- selectivity for ALK5 against ALK3 (ALK3 (BMPR1A); KINOMEscan): greater than 300 fold
- Selectivity improvement (TGFBR2; (I) versus Galunisertib): 83
- selectivity for ALK5 against TGFBR2 (TGFBR2; KINOMEscan): 100 fold
- Selectivity against ALK5 (TGFBR2; TGFBR2 versus ALK5): 100
- Selectivity improvement (ALK2 (ACVR1); (I) versus Galunisertib): 1.8
- Selectivity against ALK5 (ALK2 (ACVR1); ALK2 versus ALK5): 375
- selectivity for ALK5 against ALK2 (ALK2 (ACVR1); KINOMEscan): greater than 300 fold
- Selectivity improvement (ALK6 (BMPR1B); (I) versus Galunisertib): 2.9
- Selectivity against ALK5 (ALK6 (BMPR1B); ALK6 versus ALK5): 8.0
- selectivity for ALK5 against ALK6 (ALK6 (BMPR1B); KINOMEscan): 8 fold
- Selectivity improvement (ACVR2B; (I) versus Galunisertib): 1.2
- Selectivity against ALK5 (ACVR2B; ACVR2B versus ALK5): 5.0
- selectivity for ALK5 against ACVR2B (ACVR2B; KINOMEscan): 5 fold
